Patent publication US20220096516A1, “OLIGONUCLEOTIDE MOLECULE AND APPLICATION THEREOF IN TUMOR THERAPY” (Ractigen Therapeutics, priority 2019, published 2022)
d = 2'-deoxy (DNA); r = 2'-OH (RNA)

Tested on: LHPP gene
Assay: High-throughput screening of saRNAs targeting LHPP promoter: LHPP mRNA by one-step RT-qPCR in Huh7 cells
Type: cell-based, human
Details: 10 nM saRNA, 72 hours, relative to control (Mock)
Procedure: Human liver cancer cell line Huh7 was cultured in DMEM medium (Gibco), containing 10% of calf serum (Sigma-Aldrich) and 1% of penicillin/streptomycin (Gibco). The cells were cultured at 5% CO2 and 37° C. According to the instructions provided by the manufacturer, RNAiMax (Invitrogen, Carlsbad, Calif.) was used to transfect small activating RNAs at a concentration of 10 nM (unless otherwise specified).
At the end of transfection, the media were discarded, and each well was washed with 150 μL of PBS once. After discarding the PBS, 50 μL of cell lysis buffer (Takara) was added to each well and incubated at room temperature for 5 min. 1 μL of the resulted cell lysis was taken from each well and analyzed by qPCR on an ABI 7500 fast real-time PCR system (Applied Biosystems) using a one-step TB Green™ PrimeScrip™ RT-PCR kit II (Takara, RR086A) Each transfection sample was repeatedly amplified in 3 replicate wells.
Reaction conditions were as follows: reverse transcription reaction (stage 1): 5 min at 42° C., 10 s at 95° C.; PCR reaction (stage 2): 5 s at 95° C., 20 s at 60° C., 45 cycles of amplification. HPRT1 and TBP were used as internal reference genes. PCR primers used for amplifying LHPP, HPRT1 and TBP genes are shown in Table 2, wherein LHPP was amplified using the LHPP F1/R1 primer pair.
To calculate the relative expression level (Erel) of LHPP (target gene) in an saRNA-transfected sample relative to control treatment (Mock), the Ct values of the target gene and the two internal reference genes were substituted into formula 1
Erel=2^(CtT^m^-CtT^s^)/((2^(CtR1^m^-CtR1^s^)*2^(CtR2^m^-CtR2^s^))^(1/2))
wherein CtTm was the Ct value of the target gene from the control (Mock) sample; CtTs was the Ct value of the target gene from the saRNA-treated sample; CtR1m was the Ct value of the internal reference gene 1 from the control (Mock) sample; CtR1s was the Ct value of the internal reference gene 1 from the saRNA-treated sample; CtR2m was the Ct value of the internal reference gene 2 from the control (Mock) sample; and CtR2s was the Ct value of the internal reference gene 2 from the saRNA-treated sample.
In order to obtain saRNAs capable of activating LHPP transcription, Huh7 cells were transfected with each of the aforementioned 290 saRNAs with a transfection concentration of 10 nM, and 72 hours later, according to the same method as described above, the cells were lysed and analyzed by one-step RT-qPCR to obtain the relative (compared with the control (Mock)) expression level of LHPP gene for each saRNA-treated sample. […] The observed maximum activation and maximum inhibition is 3.46 fold and 0.49 fold, respectively, saRNAs with activating activity are referred to as activating saRNAs, and the saRNAs with inhibiting activity are referred to as inhibiting saRNAs.

Row | Substance | Fold of changes in relative LHPP mRNA expression level [fold] | Fold of changes in relative LHPP mRNA expression level (log2)
1 | RAG7-107: saRNA duplex; sense AGAAAGCUUCCGAAAAGGATT (SEQ ID NO: 156), antisense UCCUUUUCGGAAGCUUUCUTT (SEQ ID NO: 320) (sugars from the 5' end r19 d2, backbone not given here) | 1.11 | 0.15
2 | RAG7-109: saRNA duplex; sense GAAGAAAGCUUCCGAAAAGTT (SEQ ID NO: 90), antisense CUUUUCGGAAGCUUUCUUCTT (SEQ ID NO: 254) (sugars from the 5' end r19 d2, backbone not given here) | 1.24 | 0.31
3 | RAG7-111: saRNA duplex; sense GGGAAGAAAGCUUCCGAAATT (SEQ ID NO: 117), antisense UUUCGGAAGCUUUCUUCCCTT (SEQ ID NO: 281) (sugars from the 5' end r19 d2, backbone not given here) | 1.18 | 0.24
4 | RAG7-112: saRNA duplex; sense UGGGAAGAAAGCUUCCGAATT (SEQ ID NO: 82), antisense UUCGGAAGCUUUCUUCCCATT (SEQ ID NO: 246) (sugars from the 5' end r19 d2, backbone not given here) | 1.26 | 0.33
5 | RAG7-113: saRNA duplex; sense CUGGGAAGAAAGCUUCCGATT (SEQ ID NO: 120), antisense UCGGAAGCUUUCUUCCCAGTT (SEQ ID NO: 284) (sugars from the 5' end r19 d2, backbone not given here) | 1.18 | 0.24
6 | RAG7-114: saRNA duplex; sense CCUGGGAAGAAAGCUUCCGTT (SEQ ID NO: 73), antisense CGGAAGCUUUCUUCCCAGGTT (SEQ ID NO: 237) (sugars from the 5' end r19 d2, backbone not given here) | 1.28 | 0.36
7 | RAG7-119: saRNA duplex; sense GAUCUCCUGGGAAGAAAGCTT (SEQ ID NO: 57), antisense GCUUUCUUCCCAGGAGAUCTT (SEQ ID NO: 221) (sugars from the 5' end r19 d2, backbone not given here) | 1.35 | 0.43
8 | RAG7-120: saRNA duplex; sense UGAUCUCCUGGGAAGAAAGTT (SEQ ID NO: 141), antisense CUUUCUUCCCAGGAGAUCATT (SEQ ID NO: 305) (sugars from the 5' end r19 d2, backbone not given here) | 1.14 | 0.19
9 | RAG7-121: saRNA duplex; sense CUGAUCUCCUGGGAAGAAATT (SEQ ID NO: 52), antisense UUUCUUCCCAGGAGAUCAGTT (SEQ ID NO: 216) (sugars from the 5' end r19 d2, backbone not given here) | 1.36 | 0.45
10 | RAG7-122: saRNA duplex; sense GCUGAUCUCCUGGGAAGAATT (SEQ ID NO: 103), antisense UUCUUCCCAGGAGAUCAGCTT (SEQ ID NO: 267) (sugars from the 5' end r19 d2, backbone not given here) | 1.21 | 0.28
11 | RAG7-123: saRNA duplex; sense CGCUGAUCUCCUGGGAAGATT (SEQ ID NO: 68), antisense UCUUCCCAGGAGAUCAGCGTT (SEQ ID NO: 232) (sugars from the 5' end r19 d2, backbone not given here) | 1.30 | 0.38
12 | RAG7-125: saRNA duplex; sense UCCGCUGAUCUCCUGGGAATT (SEQ ID NO: 55), antisense UUCCCAGGAGAUCAGCGGATT (SEQ ID NO: 219) (sugars from the 5' end r19 d2, backbone not given here) | 1.36 | 0.44
13 | RAG7-126: saRNA duplex; sense GUCCGCUGAUCUCCUGGGATT (SEQ ID NO: 45), antisense UCCCAGGAGAUCAGCGGACTT (SEQ ID NO: 209) (sugars from the 5' end r19 d2, backbone not given here) | 1.39 | 0.48
14 | RAG7-128: saRNA duplex; sense UUGUCCGCUGAUCUCCUGGTT (SEQ ID NO: 111), antisense CCAGGAGAUCAGCGGACAATT (SEQ ID NO: 275) (sugars from the 5' end r19 d2, backbone not given here) | 1.20 | 0.26
15 | RAG7-130: saRNA duplex; sense CUUUGUCCGCUGAUCUCCUTT (SEQ ID NO: 77), antisense AGGAGAUCAGCGGACAAAGTT (SEQ ID NO: 241) (sugars from the 5' end r19 d2, backbone not given here) | 1.28 | 0.36
16 | RAG7-132: saRNA duplex; sense CUCUUUGUCCGCUGAUCUCTT (SEQ ID NO: 4), antisense GAGAUCAGCGGACAAAGAGTT (SEQ ID NO: 168) (sugars from the 5' end r19 d2, backbone not given here) | 1.86 | 0.90
17 | RAG7-134: saRNA duplex; sense UGCUCUUUGUCCGCUGAUCTT (SEQ ID NO: 75), antisense GAUCAGCGGACAAAGAGCATT (SEQ ID NO: 239) (sugars from the 5' end r19 d2, backbone not given here) | 1.28 | 0.36
18 | RAG7-137: saRNA duplex; sense UCCUGCUCUUUGUCCGCUGTT (SEQ ID NO: 151), antisense CAGCGGACAAAGAGCAGGATT (SEQ ID NO: 315) (sugars from the 5' end r19 d2, backbone not given here) | 1.12 | 0.16
19 | RAG7-138: saRNA duplex; sense UUCCUGCUCUUUGUCCGCUTT (SEQ ID NO: 53), antisense AGCGGACAAAGAGCAGGAATT (SEQ ID NO: 217) (sugars from the 5' end r19 d2, backbone not given here) | 1.36 | 0.45
20 | RAG7-139: saRNA duplex; sense UUUCCUGCUCUUUGUCCGCTT (SEQ ID NO: 7), antisense GCGGACAAAGAGCAGGAAATT (SEQ ID NO: 171) (sugars from the 5' end r19 d2, backbone not given here) | 1.73 | 0.79
21 | RAG7-140: saRNA duplex; sense UUUUCCUGCUCUUUGUCCGTT (SEQ ID NO: 74), antisense CGGACAAAGAGCAGGAAAATT (SEQ ID NO: 238) (sugars from the 5' end r19 d2, backbone not given here) | 1.28 | 0.36
22 | RAG7-142: saRNA duplex; sense GCUUUUCCUGCUCUUUGUCTT (SEQ ID NO: 164), antisense GACAAAGAGCAGGAAAAGCTT (SEQ ID NO: 328) (sugars from the 5' end r19 d2, backbone not given here) | 1.10 | 0.14
